Measured values taken from ChEMBL document CHEMBL1137522, “Two new phenylpiperazines with atypical antipsychotic potential” (Bioorg Med Chem Lett, 2007).
Active and inactive are the calls of the source. No cut-off for these calls is given here.

Assays:
[1] = Binding affinity at adrenergic alpha 1 receptor in rat striatal membranes; format: cell membranes, Striatum, Membrane
D(2) dopamine receptor = D(2) dopamine receptor (Rattus norvegicus, UniProt P61169); assay: Binding affinity at dopamine D2 receptor in rat striatal membranes; format: cell membranes, Striatum, Membrane
[2] = biological target: 5-hydroxytryptamine receptor 2A (Rattus norvegicus, UniProt P14842); assay: Binding affinity at 5HT2A receptor in rat striatal membranes; format: cell membranes, Striatum, Membrane
[3] = biological target: T1, 5-hydroxytryptamine receptor 1A (Rattus norvegicus, UniProt P19327); assay: Binding affinity at 5HT1A receptor in rat striatal membranes; format: cell membranes, Striatum, Membrane
T1 sequence (P19327 whole entry): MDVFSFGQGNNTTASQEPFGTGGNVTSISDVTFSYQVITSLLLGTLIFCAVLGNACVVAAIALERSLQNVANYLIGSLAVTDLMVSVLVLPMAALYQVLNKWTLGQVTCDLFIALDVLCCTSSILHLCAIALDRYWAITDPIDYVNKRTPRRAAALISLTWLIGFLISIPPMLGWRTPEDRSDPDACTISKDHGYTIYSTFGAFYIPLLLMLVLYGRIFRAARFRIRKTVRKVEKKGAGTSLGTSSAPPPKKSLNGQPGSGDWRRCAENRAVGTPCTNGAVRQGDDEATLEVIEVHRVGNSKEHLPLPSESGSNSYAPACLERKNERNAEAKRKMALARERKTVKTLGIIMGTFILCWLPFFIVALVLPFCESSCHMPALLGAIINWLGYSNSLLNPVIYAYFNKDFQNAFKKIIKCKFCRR

Rattus norvegicus = assay: Induction of catalepsy in Mill Hill hooded rat at 10 mg/kg after 30-180 min; format: organism-based; design: dose 10 mg/kg; conditions: in vivo
Mus musculus = species on record: Mus musculus; assay: Antagonist effect on amphetamine-induced hyperlocomotion in CPU mouse by open field test; format: functional, organism-based

Chain of 5-hydroxytryptamine receptor 2A (P14842 whole entry): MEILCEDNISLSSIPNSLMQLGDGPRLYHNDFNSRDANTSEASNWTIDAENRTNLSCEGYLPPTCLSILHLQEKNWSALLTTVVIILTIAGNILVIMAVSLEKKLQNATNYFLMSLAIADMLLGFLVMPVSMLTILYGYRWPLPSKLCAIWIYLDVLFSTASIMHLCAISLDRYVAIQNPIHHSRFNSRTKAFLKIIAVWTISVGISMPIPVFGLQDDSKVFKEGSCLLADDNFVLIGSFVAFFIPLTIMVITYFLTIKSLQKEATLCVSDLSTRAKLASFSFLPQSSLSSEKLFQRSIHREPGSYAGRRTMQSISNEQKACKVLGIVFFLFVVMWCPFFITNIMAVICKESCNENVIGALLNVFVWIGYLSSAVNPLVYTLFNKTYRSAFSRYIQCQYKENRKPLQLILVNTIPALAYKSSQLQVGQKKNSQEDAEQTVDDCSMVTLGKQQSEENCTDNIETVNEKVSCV
Chain of D(2) dopamine receptor (P61169 whole entry): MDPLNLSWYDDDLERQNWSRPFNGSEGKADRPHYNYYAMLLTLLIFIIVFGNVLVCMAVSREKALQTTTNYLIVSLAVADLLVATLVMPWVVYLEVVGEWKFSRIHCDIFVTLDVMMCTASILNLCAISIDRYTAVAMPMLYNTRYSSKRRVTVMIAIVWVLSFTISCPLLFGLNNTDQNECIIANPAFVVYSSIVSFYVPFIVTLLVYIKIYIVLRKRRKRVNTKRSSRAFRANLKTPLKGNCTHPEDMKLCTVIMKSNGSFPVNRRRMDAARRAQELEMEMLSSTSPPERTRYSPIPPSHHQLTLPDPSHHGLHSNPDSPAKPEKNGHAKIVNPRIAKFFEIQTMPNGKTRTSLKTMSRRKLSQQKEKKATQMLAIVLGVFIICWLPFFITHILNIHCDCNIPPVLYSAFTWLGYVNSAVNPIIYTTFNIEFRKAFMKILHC

Row | Compound | Log Ki [1] | Ki (D(2) dopamine receptor) [nM] | Ki [2] [nM] | Ki [3] [nM] | Activity (Rattus norvegicus) | Activity (Mus musculus)
1 | FC(F)(F)c1cccc(N2CCN(CCCOc3ccc4[nH]cnc4c3)CC2)c1 | -6.92 | 15.1 | 102 | 389 | – | –
2 | S=c1[nH]c2ccc(OCCCN3CCN(c4ccccc4)CC3)cc2[nH]1 | -7.53 | 41.7 | 2.04 | 933 | Not Active | Active
3 | CN1CCN(C2=Nc3cc(Cl)ccc3Nc3ccccc32)CC1 [CLOZAPINE] | -7.65 | – | – | – | – | –
4 | COc1ccccc1N1CCN(CCCOc2ccc3[nH]c(=S)[nH]c3c2)CC1 | -8.71 | 1.7 | 19.1 | 178 | – | –
5 | FC(F)(F)c1cccc(N2CCN(CCCOc3ccc4[nH]c(=S)[nH]c4c3)CC2)c1 | -6.31 | 363 | 316 | 100 | – | –
6 | COc1ccccc1N1CCN(CCCOc2ccc3[nH]cnc3c2)CC1 | -8.23 | 8.71 | 79.4 | 15.1 | – | –
7 | c1ccc(N2CCN(CCCOc3ccc4[nH]cnc4c3)CC2)cc1 | -7.58 | 75.9 | 13.8 | 646 | Not Active | Active
